Key:
[1] = test system: ⍺4β7; test: SPR binding kinetics: recombinant ⍺4β7 passed over ligand-coated surfaces (S1 Table); conditions: SPR Biacore 3000, ligand immobilized, ⍺4β7 analyte, HBS pH 7.4, 1 mM MnCl2, 25°C
Method: To measure the specific affinity of CD4–⍺4β7 interactions we developed a surface plasmon resonance (SPR) -based assay in which recombinant ⍺4β7 was passed over a surface coated with a 23 kD D1D2 protein (aa 1–183). For comparison we prepared surfaces with recombinant MAdCAM-Ig, VCAM-Ig, monomeric gp120, and a SOSIP env trimer (S1 Table). Assays were carried out in the presence of MnCl2 to present ⍺4β7 in an active conformation. […] This rate of dissociation was similar to that of both MAdCAM-Ig and VCAM-Ig with ⍺4β7 and is indicative of a relatively high-affinity interaction.
Experiments were performed using a Biacore 3000 instrument (Cytiva Life Sciences) using CM4 or CM5 sensor chips. The data were evaluated using BIAevaluation 4.1.1 software (Cytiva Life Sciences). The chip surface was activated by injecting 35 μl of a 1:1 mixture of 0.05 M N-hydroxysuccinimide and 0.2 M N-ethyl-N-(dimethylaminopropyl) carbodiimide at 5 μl/min. NeutrAvidin, HIV gp120, sCD4 (D1D2) or Hu-MAdCAM-Ig (R&D Systems) at concentrations of 5 μg/ml in 10mM NaOAc, pH 4.5, were immobilized to 250–750 resonance units (RU). After the proteins were immobilized to the desired densities, unreacted sites were blocked with 35 μl of 1 M Tris-HCl (pH 8.0). Biotinylated cyclic V2 peptides (1 μg/ml in 20 mM Tris-HCl, pH 8.0) were bound to the NeutrAvidin surfaces to densities of approximately 250–300 RU. One surface was activated and blocked without ligand as a control surface for non-specific binding. Signal from the control surface was subsequently subtracted. Running buffer was HBS (pH 7.4), 1 mM MnCl2, 0.005% Tween- 20, 0.05% soluble carboxymethyl-dextran. Binding experiments were carried out at a flow rate of 25 μl/min at 25°C. After a 2 min injection, the surface was washed for an additional 2 min in running buffer allowing dissociation of the bound ligand from the surface. The surfaces were regenerated by multiple injections of 4.5 M MgCl2 at a flow rate of 100 μl/min. Inhibition of ⍺4β7 binding by linear V2-loop and CD4 derived peptides was carried out by pre-incubating ⍺4β7 with the peptides in running buffer at the indicated concentrations for 2 hours at room temperature prior to passing them over the prepared surfaces as described above. Cross-inhibition experiments were performed by passing either buffer or the listed analytes over a surface to which sCD4 (D1D2) had been immobilized, followed by a secondary sequential injection of ⍺4β7. The ability of each analyte to inhibit either itself or ⍺4β7 was determined by comparing the binding of ⍺4β7 in the absence or presence of the listed pre-bound analytes as previously described. Illustration of the dynamic range of range of linear peptide inhibition assays is provided in S4 Fig.

[2] = test system: ⍺4β7 on RPMI8866 cells; test: Flow cytometry: cross-inhibition of MAdCAM-Ig, VCAM-Ig and D1D2-Ig⍺tp binding to RPMI8866 cells; design: species or system human; conditions: increasing concentrations of unlabeled inhibitor, Fig 2C, 2D
Method: Cis interactions between various integrins and leukocyte receptors are known to regulate immune cell functions. To determine whether CD4 inhibits MAdCAM-1 or VCAM-1 binding to ⍺4β7 we preincubated RPMI8866 cells with labelled MAdCAM-Ig or VCAM-Ig in the presence of increasing concentrations of unlabeled D1D2-Ig⍺tp. […] This implies that MAdCAM-1 and VCAM-1, acting in trans, may interfere with CD4-⍺4β7 interactions. What remains unknown is whether interactions between ⍺4β7 and CD4 impact CD4 migration into the TCR and subsequent interactions with MHC II (Fig 2E).
Fig 2 Cross-inhibition of MAdCAM-Ig, VCAM-Ig and D1D2-Ig⍺tp binding to ⍺4β7. Flow cytometric analysis of (A) PE -conjugated MAdCAM-Ig or (B) PE -conjugated VCAM-Ig binding to RPMI8866 cells pre-incubated with increasing concentrations of unlabeled D1D2-Igαtp. Cell preincubated with increasing concentrations of (C) unlabeled MAdCAM-Ig or (D) VCAM-Ig followed by PE -conjugated D1D2-Ig⍺tp. Y-axis indicates gMFI. Dashed line indicates gMFI in the absence of any inhibitor.
Cells were stained with fluoresceine conjugated mAbs or recombinant proteins using standard procedures preceded by Fc receptor blocking with human IgG. Buffers used were 10 mM HEPES 150 mM NaCl (HBS Buffer) with 100 μM CaCl2. […] Data were acquired using a FACSCanto II (BD Biosciences) and analyzed with FlowJo software (BD Biosciences). […]

Substance: MAdCAM-Ig: recombinant MAdCAM-1 Ig fusion, R&D Systems [reference compound]
- KA [1]: 1.12e+08 M⁻¹
- ka [1]: 96700 M⁻¹ s⁻¹
- kd [1]: 0.000863 s⁻¹
- inhibition of PE-conjugated D1D2-Ig⍺tp binding to ⍺4β7 (in words) [2]: inhibited D1D2-Ig⍺tp binding to ⍺4β7 in a dose dependent manner
